Test results from publication PMC4941374, “Therapy of pancreatic cancer via an EphA2 receptor-targeted delivery of gemcitabine” (Oncotarget, 2016).
“Also recorded” adds a separate entry of the source.

Experiments:
pancreatic cancer = conditions: 126 patients, 63 per group; ref [3]; cited from earlier work
From the text: In 1997, Burris, et al. published a clinical study comparing Gemcitabine to 5-Fluoruracil (5-FU) for the treatment of pancreatic cancer. In this study, 126 patients were enrolled with 63 per treatment group. […] The median survival was 5.65 months for Gemcitabine and 4.41 months for 5-FU. […] This trial encouraged the ...

[1] = biological target: T1, EphA2 ligand binding domain (EphA2-LBD) (Homo sapiens, UniProt P29317); assay: Isothermal titration calorimetry (ITC), EphA2 LBD; conditions: 50 mM phosphate buffer pH 6.5, 100 mM NaCl, as given in legend
T1 construct: made in house
T1 sequence (P29317 28-206 limits assumed): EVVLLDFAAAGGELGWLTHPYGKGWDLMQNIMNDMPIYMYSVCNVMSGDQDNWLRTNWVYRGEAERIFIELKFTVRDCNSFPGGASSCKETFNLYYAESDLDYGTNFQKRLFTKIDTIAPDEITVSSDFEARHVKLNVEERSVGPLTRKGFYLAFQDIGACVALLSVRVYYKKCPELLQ
Description: (§1) To further verify the binding affinity and selectivity of the resulting conjugates for the EphA2 ligand binding domain (LBD), we expressed and purified EphA2 and […]. These proteins were dissolved to a final concentration of 100 μM in 50 mM phosphate buffer (pH = 6.5), containing 100 mM NaCl.
(§2) All linear peptides and peptide mimetics were assembled using standard Fmoc peptide synthesis protocol with the Rink amide resin on 433A Peptide Synthesizer (Applied Bio-Systems). In general, in each coupling reaction, approximately 10 equivalents of Fmoc-amino acid, 0.45 M solution of HOBt/HBTU (9 equiv) in DMF, 2 M solution of DIEA in NMP were used, for about 9 minutes. Fmoc de-protection was performed with 20% piperidine in DMF for 10 min. Each peptide was subsequently cleaved from the resin and all protecting groups removed by exposure to a 94% TFA, 2 % water, 2% tri-isopropylsilane, 2% phenol mixture for approximately 3 h. The TFA mixture was subsequently removed under reduced pressure and the peptides were precipitated in diethyl ether, centrifuged, and washed with diethyl ether prior to drying in high vacuum. The crude peptides were purified by preparative reverse phase HPLC. The final compounds were characterized by NMR and MALDI-Mass. […] EphA2-LBD and EphA3-LDB were expressed as reported recently. […]

[2] = test system: MIA PaCa-2-luc pancreatic cancer xenografts; assay: MIA PaCa-2-luc subcutaneous xenograft, 123B9-L2-Gem study; format: in vivo, human tumor cells in athymic nude mice
Description: Similarly, in a separate experiment we compared the efficacy of equimolar doses of Gemcitabine and 123B9-L2-Gem (Figure 3C, 3D).
(§3) Isothermal Titration Calorimetry (ITC) measurements were obtained with Model ITC200 from Microcal/GE Life Sciences. For in vivo studies, all drugs were diluted in 10% Tween-80, 10% DMSO, and 80% PBS.
(§4) 5 × 10^6 MIA PaCa-2-luciferase cells were used to establish bilateral subcutaneous tumors on the flanks of 8–10 week old male athymic nude mice. Studies were done as previously described. Treatment began when tumors reached a palpable size (∼50–100 mm^3) with 9 mice per group. All drugs were administered by tail vein injection twice per week for 4 weeks, for a total of 8 injections. […] BLI measurements were performed at the beginning and end of the study. During imaging, mice were placed in the imaging chamber and maintained with 2% isoflurane gas anesthesia at a flow rate of approximately 0.5–1 L/min per mouse. Anesthetized mice were injected IP with 150 mg/kg body weight D-Luciferin (Xenogen Corporation, Alameda, CA). After approximately 10 min, mice were imaged using a charge-coupled-device (CCD) camera coupled to the Xenogen in vivo imaging (IVIS) imaging system (Caliper Life Sciences, Inc., Hopkinton, MA).
Tumors were measured twice per week using calipers. […]

[3] = test system: EphA3 ligand binding domain (EphA3-LBD); assay: Isothermal titration calorimetry (ITC), EphA3 LBD; conditions: 50 mM phosphate buffer pH 6.5, 100 mM NaCl, ~50% sequence identity with the EphA2 LBD
Description: as §1, §2

hENT1 = test system: hENT1; parameters: method as in PMID 22978251; conditions: sodium-independent transporter; ref [4]; cited from earlier work
From the text: (§5) Though there are multiple mechanisms of Gemcitabine resistance, one important mechanism revolves around expression of this protein. […] Patients with higher hENT1 expression have tumors that can more readily take ...

[4] = test system: metastatic pancreatic cancer; parameters: method as in PMID 24131140; conditions: 861 patients, ref [36]; cited from earlier work
From the text: There is a vital need to develop novel therapies that provide greater clinical benefit to patients without undue toxicity. A Phase 3 clinical study in patients with metastatic pancreatic cancer evaluated nab-Paclitaxel (Abraxane) + Gemcitabine versus Gemcitabine alone in a total of 861 patients.

[5] = test system: MIA PaCa-2-luc pancreatic cancer xenografts; assay: MIA PaCa-2-luc subcutaneous xenograft, YNH-L2-Gemcitabine study; format: in vivo, human tumor cells in athymic nude mice; conditions: for effect on tumor growth: 10 mg/kg Gemcitabine or equimolar conjugate, tail vein, twice per week for 4 weeks, 9 mice/group, caliper tumor volume and BLI; for survival time: Kaplan-Meier, days, mice sacrificed when moribund, Supplementary Figure S2 top
Description: MIA PaCa-2-luc cells were used to create bilateral subcutaneous xenografts in athymic nude mice. […] Cells were injected into each flank and then allowed to grow for approximately 1 week. At this point, mice were imaged using BLI and treatment was subsequently initiated. Mice were divided into 4 groups (PBS, Gemcitabine, YDH-L2-Gemcitabine, YNH-L2-Gemcitabine) with 9 mice/group. YDH-L2-Gemcitabine is a scrambled control, where the peptide attached to Gemcitabine should not be specific for EphA2 and, therefore, should not bind to the receptor. Animals were treated 2 times per week via tail vein injection for 4 weeks. A dose of 10 mg/kg Gemcitabine was used along with equimolar doses of YDH-L2-Gemcitabine and YNH-L2-Gemcitabine. At the end of 4 weeks, animals were again imaged and treatment was ended.
as §3, §4
Tumors were measured twice per week using calipers. For in vivo studies, data shown are the mean + SEM and for statistical comparisons we used the two-way Anova analyses (GraphPad). After their last injection, mice were kept for 1 additional week to monitor tumor growth and imaged at the end of that week. The mice were then kept to monitor for the effects of treatment on survival. Mice were kept until reaching a moribund status and they were then sacrificed at that time.

tumors expressing hENT1 = test system: tumors expressing hENT1; parameters: method as in PMID 16818496; conditions: high versus lower hENT1 expression; ref [5]; cited from earlier work
From the text: as §5

Row | Structure (SMILES) | median survival (pancreatic cancer) [months] | patients alive at 12-month time point (pancreatic cancer) [%] | patients with clinical benefit (pancreatic cancer) [%] | binding to EphA3 LBD (in words) [3] | effect on tumor growth [5] | survival time [5] | also measured
1 | O=c1[nH]cc(F)c(=O)[nH]1 [5-FU, 5-Fluoruracil] | 4.41 | 2 | 4.8 | – | – | – | –
2 | CCCC[C@H](NC(=O)[C@@H]1CCCN1C(=O)[C@@H](NC(=O)[C@H](CO)NC(=O)[C@H](CC(=O)O)NC(=O)[C@@H]1CCCN1C(=O)[C@H](Cc1ccc(O)cc1)NC(=O)[C@H](C)NC(=O)[C@H](CO)NC(=O)COc1ccc(F)c(Cl)c1)C(C)C)C(=O)N[C@@H](CCO)C(=O)N[C@@H](CO)C(=O)N[C@@H](CCCCNC(=O)CCCc1cn(CCCCCC(=O)O[C@@H]2[C@@H](CO)O[C@@H](n3ccc(N)nc3=O)C2(F)F)nn1)C(N)=O [123B9-L2-Gem] | – | – | – | No appreciable binding was detected | – | – | ΔH, binding to EphA2 LBD [1]: -11 kcal/mol; survival time ([2]; Kaplan-Meier, days, mice sacrificed when moribund, Supplementary Figure S2 bottom): significantly longer than both untreated and Gemcitabine treated groups; also recorded: significant increase in survival time; also recorded: prolong survival; effect on tumor growth ([2]; equimolar doses, equivalent of 10 mg/Kg Gemcitabine, tail vein, twice per week for 4 weeks, caliper tumor volume and BLI, 10 mg/kg): significantly more effective than gemcitabine alone in suppressing tumor growth; also recorded: significant efficacy was observed
3 | Nc1ccn([C@@H]2O[C@H](CO)[C@@H](O)C2(F)F)c(=O)n1 [Gemcitabine] | 5.65 | 18 | 23.8 | – | had a modest effect on tumor growth; also recorded: did not exhibit significant efficacy compared to mice treated with vehicle only as control | significant increase in the median survival time compared to untreated mice | transport by hENT1 (hENT1): preferentially transport Gemcitabine; median survival [4]: 6.7 months; response rate [4]: 7%; survival rate at 1 year [4]: 22%; survival rate at 2 years [4]: 4%; survival advantage with high tumor hENT1 expression (tumors expressing hENT1): greater survival advantage with Gemcitabine treatment as compared to those with lower hENT1 expression
4 | CCCC[C@H](NC(=O)[C@@H]1CCCN1C(=O)[C@@H](NC(=O)[C@H](CO)NC(=O)[C@H](CC(=O)O)NC(=O)[C@@H]1CCCN1C(=O)[C@H](Cc1ccc(O)cc1)NC(=O)[C@H](C)NC(=O)[C@H](CO)NC(=O)[C@@H](N)Cc1ccc(O)cc1)C(C)C)C(=O)N[C@@H](CCO)C(=O)N[C@@H](CO)C(=O)N[C@@H](CCCCNC(=O)CCCc1cn(CCCCCC(=O)O[C@@H]2[C@@H](CO)O[C@@H](n3ccc(N)nc3=O)C2(F)F)nn1)C(N)=O [YNH-L2-Gem] | – | – | – | No appreciable binding was detected | significant efficacy was observed | prolong survival | effect on tumor growth ([5]; listed as YNH-L2-Gemcitabine): showed the greatest inhibition of tumor growth of all groups evaluated; also recorded: inhibits tumor growth in vivo to a greater extent as compared to Gemcitabine; survival time ([5]; listed as YNH-L2-Gemcitabine): significant increase in the median survival time compared to untreated mice
